Where “and” joins values, the source holds several entries; their conditions need not be identical. Equal values may be shown once. Read-outs that look alike come from different tables or passages of the source.
Tests used:
Varroa mites [1] = test: Efficacy of BPQ B against Varroa mites on honeybees fed treated sucrose solution; type: in vivo
Procedure: (§1) Example 6 - Toxicity of BPQ B to Varroa mites on honeybees when fed treated sucrose solution
To estimate the percentage efficacy of BPQ at different concentrations in sucrose solution
(§2) A total of 20 newly emerged Varroa infested bees were placed in hoarding cages. The cages were prepared as described in Section 1.0, except that the air vents were reduced in size using parafilm to prevent the Varroa mites escaping during the test period. The mean(±se) number of mites per 20 bees was estimated prior to commencement of the experiment and an additional 5 mites per cage were added. (mean±se = 10.6±0.33). This was carried out by collecting adult female mite from drone pupae, placing them in an eppendorf tube and then releasing them into the cages.
(§3) The treatment solution was made by dissolving BPQ B in solvent, followed by two aqueous serial dilutions producing a concentration of 500µg/mL and 5 µg/mL. From the latter, further serial dilutions were carried with sucrose solution producing the following concentrations: • 0.5µg/mL. (C1-C3) • 0.05µg/mL. (D1-D3) • 0.005µg/mL. (E1-E3) • 0.0005µg/mL. (F1-F3) • 0.00005µg/mL (G1-G3)
(§4) Three replicates were established at each concentration plus a control group which were only fed sugar syrup. All cages were placed in the incubator at 32°C and monitored on a daily basis for the number of mites and number of bees knocked down. At the end of five day treatment period, the percentage efficacy of the treatment was estimated by treating bees in all cages with Apistan (Trade Mark of Vita (Europe) Ltd. Apistan contains fluvalinate which is a synthetic pyrethroid. % efficacy = mites knocked from treatment/total mites (treatment+Apistan)*100 [formula]

[2] = Toxicity of BPQ B to honeybee larvae when fed treated syrup; type: in vivo, Apis mellifera; details: honeybee, in vivo, po, read-out: % Emergence
Source text: (§5) To measure the effect of treatment on developing larvae when fed syrup treated with BPQ powder, BPQ B, dissolved in the solvent (N-methyl pyrollidone) and diluted in an aqueous solution.
(§6) Apidae boxes were used to raise young queens and when virgin queens started to lay an area 6cm x 3cm were marked and missing cells were noted. The miniature colony was fed treated syrup, which was made by dissolving BPQ B powder in solvent, followed by serial dilutions using a sucrose solution (2 parts sugar: 1 part water). The concentrations administered are given below. Two replicates were carried out for the product, while 1 colony (apidae) was used for each of the solvent concentrations.

honeybee larvae = test: as above; type: in vivo, Apis mellifera; details: for Sealed cells / Young bees emerged: 40 cells
Source text: as §5, §6

Varroa mites [3] = test: Efficacy of BPQ B against Varroa mites on honeybees sprayed with an aqueous solution; type: in vivo; details: sprayed as an aqueous solution, preliminary
Procedure: (§7) Example 7 - Toxicity of BPQ B to Varroa mites on honeybees when sprayed with an aqueous solution of the active ingredient
To estimate the percentage efficacy of BPQ B at different concentrations when sprayed as an aqueous solution onto adult bees
(§8) A total of 20 newly emerged Varroa infested bees were placed in hoarding cages. The cages were prepared as described in Section 1.0, except that the air vents were reduced in size using parafilm to prevent the Varroa mites escaping during the test period. The mean(±se) number of mites per 20 bees was estimated prior to commencement and an additional 10 mites per cage were added. Mites were collected and introduced as described above. The treatment solution was made by dissolving BPQ B in solvent, followed by two aqueous serial dilutions producing a concentration of 500µg/mL and 5µg/mL. From the latter, further serial dilutions were carried in water producing the following concentrations: • 0.5µg/mL. (C1-C3) • 0.05µg/mL. (D1-D3) • 0.005µg/mL. (E1-E3) • 0.0005µg/mL. (F1-F3) • 0.00005µg/mL (G1-G3)
as §4, with “sprayed with water only. All test groups were” for “only”, “10mL of 1:1 sucrose:water solution and” for “sugar syrup. All cages were”, “Apistan.” for “Apistan (Trade Mark of Vita (Europe) Ltd. Apistan contains fluvalinate which is a synthetic pyrethroid.”

honeybees [4] = test: Survival of bees sprayed with aqueous solutions of BPQ; type: in vivo, Apis mellifera; details: sprayed as an aqueous solution
Procedure: as §7, §8
as §4, with “sprayed with water only. All test groups were” for “only”, “10mL of 1:1 sucrose:water solution and” for “sugar syrup. All cages were”, “Apistan.” for “Apistan (Trade Mark of Vita (Europe) Ltd. Apistan contains fluvalinate which is a synthetic pyrethroid.”

honeybees [5] = test: Bee survival in the test with BPQ B fed in sucrose solution; type: in vivo, Apis mellifera
Procedure: as §1, §2, §3
Three replicates were established at each concentration plus a control group which were only fed sugar syrup. All cages were placed in the incubator at 32°C and monitored on a daily basis for the number of mites and number of bees knocked down. […]

[6] = 0.00005µg/mL (g1-g3) in sucrose solution fed to 20 infested bees per cage
[7] = 0.00005µg/mL (g1) in sucrose fed to colony
[8] = 0.0005µg/mL (f1-f2) in sucrose fed to colony
[9] = 0.005µg/mL (e1-e2) in sucrose fed to colony
[10] = 0.05µg/mL (d1-d2) in sucrose fed to colony
[11] = 0.5µg/mL (c1-c2) in sucrose fed to colony

For `CC(C)(C)[C@H]1CC[C@H](CC2=C(O)C(=O)c3ccccc3C2=O)CC1` [BPQ B, buparvaquone], the “daily Varroa mite drop down, Day 4” value (Varroa mites [1]; [6]) was 0, the “daily Varroa mite drop down, Day 6” value (Varroa mites [1]; [6]) was 0 and the “daily Varroa mite drop down, Day 2” value (Varroa mites [1]; 0.0005µg/mL (f1-f3) in sucrose solution fed to 20 infested bees per cage) was 7 and 9. For the same compound, the “effective in Varroa knockdown” value (Varroa mites [1]; 0.0005µg/mL, fed in sugar solution) was greater than 80%, the “daily Varroa mite drop down, Day 5” value (Varroa mites [1]; 0.05µg/mL (d1-d3) in sucrose solution fed to 20 infested bees per cage) was 1 and the “daily Varroa mite drop down, Day 6” value (Varroa mites [1]; 0.5µg/mL (c1-c3) in sucrose solution fed to 20 infested bees per cage) was 1 and 2. For the same compound, the maximum efficacy (Varroa mites [1]; fed in a sucrose solution, treatment f (0.0005µg/mL), 5 day treatment) was “approximately 82%”, the minimum efficacy (Varroa mites [1]; fed in a sucrose solution, treatment g (0.00005µg/mL), 5 day treatment) was 43.8% and the survival [2, 7] was 96.8%. It also gave a survival [2, 8] of 70.3%, a survival [2, 9] of 82.4% and a survival [2, 10] of 81.8%. It also gave a survival [2, 11] of 85.7%, a Sealed cells (honeybee larvae; [7]) of 30 and a Young bees emerged (honeybee larvae; [7]) of 30. The “% Emergence” value (honeybee larvae; [8]) was 87.5%, the Sealed cells (honeybee larvae; [8]) was 32 and 30 and the Young bees emerged (honeybee larvae; [8]) was 26 and 28. The “% Emergence” value (honeybee larvae; [9]) was 86.5%, the Sealed cells (honeybee larvae; [9]) was 31 and 37 and the Young bees emerged (honeybee larvae; [9]) was 28 and 32. The “% Emergence” value (honeybee larvae; [10]) was 69.7%, the Sealed cells (honeybee larvae; [10]) was 30 and 29 and the Young bees emerged (honeybee larvae; [10]) was 27 and 23. The “% Emergence” value (honeybee larvae; [11]) was 93.9%, the Sealed cells (honeybee larvae; [11]) was 32 and 33 and the Young bees emerged (honeybee larvae; [11]) was 30 and 31. For the same compound, the “toxicity for bee larvae” value (honeybee larvae; powder dissolved in NMP, diluted in water then sugar solution, any concentration) was “No toxicity”, the mean minimum efficacy (Varroa mites [3]; treatment d (0.05µg/mL)) was 28.4% and the mean maximum efficacy (Varroa mites [3]; treatment g (0.00005µg/mL)) was 46.2%. The “percentage efficacy against the Varroa mite” value (Varroa mites [3]) was “low”, the toxicity to bees (honeybees [4]) was “very low” and the bee survival (honeybees [5]; fed in a sucrose solution, day 5) was “no negative effects”. For the same compound, the toxicity for bees (honeybees [5]; powder dissolved in NMP, diluted in water then sugar solution, tested over 5 days, any concentration) was “No toxicity”.

— patent EP2433624B1, “Use of buparvaquone for controlling mites parasitising honeybees” (Bimeda International Pharmaceuticals Limited, priority 2010, dated 2012)
